Assay results as given in the OligoGym collection.
Several values for one entry are separate records, joined by “and”; a condition that tells them apart may be missing. Identical values can stand only once. After the bases stand the sugars from the 5' end (letter, count) and the backbone: PS all phosphorothioate, else s phosphorothioate and o phosphodiester by linkage. Methylation of C is not given here. k = constrained ethyl (cEt); d = 2'-deoxy (DNA)

Target: MALAT1
Conditions: ASO, A431, 0.005 µM

Sequence	target mRNA inhibition
AAATCCCTTTACACCT (sugars k3 d10 k3, PS)	23%
CTGCCAGGCTGGTTAT (sugars k3 d10 k3, PS)	1%
GAAAAGTGGTTGCCCG (sugars k3 d10 k3, PS)	32%
AGCAACTCTTCTGATA (sugars k3 d10 k3, PS)	30%
GCATTGCCCTTCTATT (sugars k3 d10 k3, PS)	70% and 46%
GCTCCCCGCCTGAGCC (sugars k3 d10 k3, PS)	8%
TCGATGGAAAAATTTC (sugars k3 d10 k3, PS)	30%
TCTTAACTCAAAGTCC (sugars k3 d10 k3, PS)	39%
GCTTGACAAGCAATTA (sugars k3 d10 k3, PS)	35%
AACTTGGAAGTTGATA (sugars k3 d10 k3, PS)	19%
TACTTGCCAACAGAAC (sugars k3 d10 k3, PS)	19%
CTTAGTAACCTATTGA (sugars k3 d10 k3, PS)	34%
GTACACTCCTTCTCTA (sugars k3 d10 k3, PS)	17%
GTATTTATAGACGGAG (sugars k3 d10 k3, PS)	0%
GACCAACTAAGCGAAT (sugars k3 d10 k3, PS)	39%
CATCAAACACTGGTTC (sugars k3 d10 k3, PS)	14%
AGCTTCAACTGGGAAT (sugars k3 d10 k3, PS)	13%
GTAACTTTAAATTGGT (sugars k3 d10 k3, PS)	55% and 63%
CTCCCCCATTATATTA (sugars k3 d10 k3, PS)	31%
ACTGGATAAGTATTAT (sugars k3 d10 k3, PS)	46%
AAATCGGAGCAGCACG (sugars k3 d10 k3, PS)	16%

Sequence	target mRNA inhibition
CCTGAAATCCCCTAGG (sugars k3 d10 k3, PS)	-4%
TTTACTTTCCATTACG (sugars k3 d10 k3, PS)	16%
ATTAAAGAGTGTTCGC (sugars k3 d10 k3, PS)	69% and 44%
TAAATACCACCACCTG (sugars k3 d10 k3, PS)	2%
CCTCAGTACGAAACTC (sugars k3 d10 k3, PS)	16%
ACCTAAACCCACCCCA (sugars k3 d10 k3, PS)	-1%
GTAAAACATTGCCTAC (sugars k3 d10 k3, PS)	24%
TTGCCGACCTCACGGA (sugars k3 d10 k3, PS)	30%
GATAAAAGCAGCTCCA (sugars k3 d10 k3, PS)	30%
TCTCCGAAGACACAGA (sugars k3 d10 k3, PS)	0%
CCTCACAAAACCCCCG (sugars k3 d10 k3, PS)	-13%
TTGAAGCATACCTTAA (sugars k3 d10 k3, PS)	28%
ACAAATACGACTGCTT (sugars k3 d10 k3, PS)	16%
AATGACGCAATTCTCC (sugars k3 d10 k3, PS)	21%
TGAGTATGCTGATAAA (sugars k3 d10 k3, PS)	41%
TCCCTTTACACCTCAG (sugars k3 d10 k3, PS)	25%
CTTCAGGCGAGCTGAG (sugars k3 d10 k3, PS)	-4%
CCCACCCAGCATTACA (sugars k3 d10 k3, PS)	18%
AGGGACGGTTGAGAAG (sugars k3 d10 k3, PS)	14%
ATTAATGCACTGGTAC (sugars k3 d10 k3, PS)	16%
GGAAATTTTTCTACCG (sugars k3 d10 k3, PS)	8%

Sequence	target mRNA inhibition
TATAGACGGAGAACAA (sugars k3 d10 k3, PS)	30%
GCTCGATGGAAAAATT (sugars k3 d10 k3, PS)	10%
GACATTCAAGCTGAAC (sugars k3 d10 k3, PS)	53%
CTTATCAATTCACCAA (sugars k3 d10 k3, PS)	47%
CAGCTTCAATCACAAA (sugars k3 d10 k3, PS)	33%
ACTAAACAATTACCTA (sugars k3 d10 k3, PS)	9%
ACCACTCGCTTTCCCT (sugars k3 d10 k3, PS)	35%
ATTACTTCCGTTACGA (sugars k3 d10 k3, PS)	43%
TCCTTCGGATGCTTCA (sugars k3 d10 k3, PS)	56%
CTCTTCTGATAACGAA (sugars k3 d10 k3, PS)	23%
TTCTGATAACGAAGAG (sugars k3 d10 k3, PS)	8%
CACGGAAATTTTTCTA (sugars k3 d10 k3, PS)	8%
TAAGATGCTAGCTTGG (sugars k3 d10 k3, PS)	25%
TCCTACCACTCCCAAT (sugars k3 d10 k3, PS)	30%
TACTCTTGATCTTGAA (sugars k3 d10 k3, PS)	46%
GCCTGCTCGCCTCCTC (sugars k3 d10 k3, PS)	41%
TGGTTATAGCTTGACA (sugars k3 d10 k3, PS)	82% and 95%
AGGCAAATTAATGGCC (sugars k3 d10 k3, PS)	8%
CACAAATACGACTGCT (sugars k3 d10 k3, PS)	24%
CGCCTTCCCGTACTTC (sugars k3 d10 k3, PS)	57%
GCGGACTTTCTCCCCC (sugars k3 d10 k3, PS)	-24%

Sequence	target mRNA inhibition
TGTTAAGACCATCCCA (sugars k3 d10 k3, PS)	9%
GAACTAGCACCTGCAG (sugars k3 d10 k3, PS)	4%
CGCCTTTGTGAGGGAG (sugars k3 d10 k3, PS)	-3%
CACTACTCCAAGCATT (sugars k3 d10 k3, PS)	23%
TCAAGGCACTGATCAC (sugars k3 d10 k3, PS)	49%
CCAAGCACTCATATGC (sugars k3 d10 k3, PS)	12%
GCATTTCCCATAATTG (sugars k3 d10 k3, PS)	46%
GAATCCCCCCCAAGAT (sugars k3 d10 k3, PS)	-15%
GTATGCTGATAAACTC (sugars k3 d10 k3, PS)	52%
CAGTGCTATTTTATCC (sugars k3 d10 k3, PS)	78% and 70%
TCATTGGGAGTTACTT (sugars k3 d10 k3, PS)	57%
TGTAAGAATTAAGACC (sugars k3 d10 k3, PS)	18%
ACGGAAATTTTTCTAC (sugars k3 d10 k3, PS)	4%
GAAATCTATTCAATAC (sugars k3 d10 k3, PS)	24%
AATCATACTCCAGTCG (sugars k3 d10 k3, PS)	35%
AAAAGTAGTTCTTCGG (sugars k3 d10 k3, PS)	18%
GGTCAATAGTGTAAAA (sugars k3 d10 k3, PS)	43%
GAAAGTGCTCACAAGG (sugars k3 d10 k3, PS)	6%
